# Test results reported in ChEMBL document CHEMBL1201862, “PubChem BioAssay data set” (2004).
# Calls of active or inactive are those of the source. Cut-off read from the data, not from the text of the source, for most assays here: actives have a measured EC50 and inactives only a lower limit.
# Legend:
# [1] = tested on: Streptococcus sp. 'group A'; experiment: Streptococcus pyogenes SK(-)GAS viability under kanamycin – luminescence, BacTiterGlo, confirmation, counter-screen for streptokinase expression inhibitor project, dose response (AID 1900); format: functional, organism-based
# [2] = biological target: T1, Streptokinase A (Streptococcus pyogenes serotype M1, UniProt P10520); experiment: viability-normalized secreted streptokinase activity reduction – plasminogen activation absorbance, OD405, dose response (AID 1914); format: functional, Streptococcus pyogenes M1 GAS;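 note: secreted streptokinase activity via plasminogen activation per viability signal from cell pellet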
# T1 sequence (P10520 whole entry): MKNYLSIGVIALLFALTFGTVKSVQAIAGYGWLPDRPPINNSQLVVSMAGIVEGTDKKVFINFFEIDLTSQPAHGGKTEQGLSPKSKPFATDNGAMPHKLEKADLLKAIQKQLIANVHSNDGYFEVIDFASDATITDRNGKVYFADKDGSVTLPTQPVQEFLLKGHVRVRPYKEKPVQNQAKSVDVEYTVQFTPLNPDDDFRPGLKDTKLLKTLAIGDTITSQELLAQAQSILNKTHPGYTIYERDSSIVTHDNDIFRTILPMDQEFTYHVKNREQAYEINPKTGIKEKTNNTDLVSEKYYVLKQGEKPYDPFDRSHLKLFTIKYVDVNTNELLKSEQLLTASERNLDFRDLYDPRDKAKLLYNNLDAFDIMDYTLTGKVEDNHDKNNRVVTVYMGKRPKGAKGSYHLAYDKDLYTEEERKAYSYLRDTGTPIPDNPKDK
# [3] = Trypanosoma cruzi growth suppression in host cells – NIH3T3 host cells, beta-gal luminescence, confirmation (AID 2044); format: functional, cell-based;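 note: intracellular parasites grown in NIH/3T3 mouse fibroblasts as host cells; luminescent beta-galactosidase reporter signal from transgenic T. cruzi replicating inside host cells; inhibitors lower the luminescence signal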
# [4] = NIH3T3 cell viability loss – ATP luminescence, mouse fibroblasts, counter-screen, dose response (AID 2010); format: functional, cell-based;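 note: cells exposed to compound for about 90 hours before reading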
# [5] = tested on: Streptococcus; experiment: GAS UMAA2166 growth inhibition – luminescence, BacTiterGlo, counter-screen for streptokinase expression inhibitor project, dose response (AID 1915); format: functional, organism-based;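 note: potency for reduction of bacterial viability or growth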
# [6] = Luminescence Cell-Based Dose Retest to Confirm Inhibitors of Cancer Stem Cells. [Related pubchem assays (depositor defined):AID2717, AID2721]; format: functional; settings: Homo sapiens
# [7] = biological target: T2, Cytochrome P450 1A2 (Homo sapiens, UniProt P05177);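 note: PubChem cytochrome P450 panel assay, CYP1A2 panel member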
# T2 sequence (P05177 whole entry): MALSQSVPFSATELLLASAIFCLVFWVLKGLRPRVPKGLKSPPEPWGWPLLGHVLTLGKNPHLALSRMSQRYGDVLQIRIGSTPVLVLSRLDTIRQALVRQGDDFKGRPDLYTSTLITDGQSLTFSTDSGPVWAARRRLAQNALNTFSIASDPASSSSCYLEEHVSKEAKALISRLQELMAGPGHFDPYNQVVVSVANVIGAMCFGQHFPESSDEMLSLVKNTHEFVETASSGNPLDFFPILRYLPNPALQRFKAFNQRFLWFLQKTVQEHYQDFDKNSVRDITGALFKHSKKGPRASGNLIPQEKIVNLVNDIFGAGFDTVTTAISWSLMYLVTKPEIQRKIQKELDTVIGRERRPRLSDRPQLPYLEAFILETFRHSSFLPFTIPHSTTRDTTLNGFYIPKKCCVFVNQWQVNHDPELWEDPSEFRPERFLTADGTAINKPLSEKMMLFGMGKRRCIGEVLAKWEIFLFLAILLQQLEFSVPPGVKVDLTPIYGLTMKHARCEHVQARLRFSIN
# [8] = biological target: Cytochrome P450 3A4 (Homo sapiens, UniProt P08684);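 note: CYP3A4 tested as one member of a cytochrome P450 panel screen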
# Chain of Cytochrome P450 3A4 (P08684 whole entry): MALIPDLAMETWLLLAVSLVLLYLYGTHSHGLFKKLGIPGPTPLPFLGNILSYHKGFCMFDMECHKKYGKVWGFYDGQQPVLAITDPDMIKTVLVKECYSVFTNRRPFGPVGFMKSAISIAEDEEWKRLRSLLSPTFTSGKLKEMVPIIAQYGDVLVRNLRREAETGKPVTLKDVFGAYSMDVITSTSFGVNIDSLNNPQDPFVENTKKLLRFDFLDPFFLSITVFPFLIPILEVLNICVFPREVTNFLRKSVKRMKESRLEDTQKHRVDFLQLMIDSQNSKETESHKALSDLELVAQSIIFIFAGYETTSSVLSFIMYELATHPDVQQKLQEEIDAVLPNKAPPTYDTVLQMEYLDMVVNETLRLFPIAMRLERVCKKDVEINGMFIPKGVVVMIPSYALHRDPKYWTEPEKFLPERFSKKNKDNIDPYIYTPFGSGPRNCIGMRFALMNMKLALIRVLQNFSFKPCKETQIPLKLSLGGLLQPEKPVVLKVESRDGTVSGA
# [9] = luciferase reporter signal suppression in cells – H4 neuroglioma cells, luminescence, dose response (AID 1990); format: functional, cell-based
# [10] = Luminescence Cell-Based Dose Response HTS to Identify Inhibitors of 5'UTR Stem-Loop Driven Prion Protein mRNA Translation in H4 Neuroglioblastoma Cells. [Related pubchem assays: 1827 (Project Summary), 1813 (Primary HTS)]; format: functional
# [11] = alpha-synuclein stem-loop luciferase translation blockers – H4 neuroglioma cells, luminescence, confirmation (AID 1988); format: functional, cell-based
# [12] = biological target: Cytochrome P450 2D6 (Homo sapiens, UniProt P10635);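 note: CYP2D6 member of a cytochrome P450 panel assay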
# Chain of Cytochrome P450 2D6 (P10635 whole entry): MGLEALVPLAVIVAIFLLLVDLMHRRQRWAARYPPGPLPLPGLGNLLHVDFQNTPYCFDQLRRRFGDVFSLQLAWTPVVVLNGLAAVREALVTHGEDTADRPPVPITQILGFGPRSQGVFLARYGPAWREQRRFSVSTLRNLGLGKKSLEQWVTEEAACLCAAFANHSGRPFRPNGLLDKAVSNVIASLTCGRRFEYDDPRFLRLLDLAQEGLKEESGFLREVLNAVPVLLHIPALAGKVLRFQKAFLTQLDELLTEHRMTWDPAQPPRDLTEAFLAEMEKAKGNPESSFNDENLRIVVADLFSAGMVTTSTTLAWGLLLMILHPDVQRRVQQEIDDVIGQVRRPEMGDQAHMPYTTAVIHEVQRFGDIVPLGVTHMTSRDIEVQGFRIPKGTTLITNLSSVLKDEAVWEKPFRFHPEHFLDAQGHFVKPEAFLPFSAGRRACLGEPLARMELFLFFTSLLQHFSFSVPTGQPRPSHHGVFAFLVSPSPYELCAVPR
# [13] = biological target: Cytochrome P450 2C9 (Homo sapiens, UniProt P11712)
# Chain of Cytochrome P450 2C9 (P11712 whole entry): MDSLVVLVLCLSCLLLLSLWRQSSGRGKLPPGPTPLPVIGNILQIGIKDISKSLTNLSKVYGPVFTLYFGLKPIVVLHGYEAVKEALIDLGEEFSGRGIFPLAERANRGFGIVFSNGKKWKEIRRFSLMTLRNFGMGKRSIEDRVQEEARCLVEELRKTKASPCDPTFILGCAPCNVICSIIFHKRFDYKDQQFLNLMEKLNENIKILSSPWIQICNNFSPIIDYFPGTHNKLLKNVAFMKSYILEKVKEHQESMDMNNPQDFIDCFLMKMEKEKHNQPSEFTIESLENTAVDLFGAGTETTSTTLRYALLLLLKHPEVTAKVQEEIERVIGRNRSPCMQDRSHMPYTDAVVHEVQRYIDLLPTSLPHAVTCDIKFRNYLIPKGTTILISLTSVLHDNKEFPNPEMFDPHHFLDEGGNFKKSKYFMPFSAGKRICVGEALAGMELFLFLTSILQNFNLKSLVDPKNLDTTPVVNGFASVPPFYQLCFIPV
# [14] = tested on: INS1; experiment: INS-1E survival protection against cytokine death – cell-based, luminescence, retest, dose response (AID 449756); format: functional; settings: Rattus norvegicus;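 note: cell death triggered by IL-1 beta plus TNF-alpha plus IFN-gamma mixture; protective hits raise ATP signal compared with cytokine alone wells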
# [15] = biological target: T3, Heat shock factor protein 1 (Mus musculus, UniProt P38532); experiment: decrease of HSF1-responsive luciferase luminescence – cell-based, NIH3T3, dose retest, confirmation (AID 2382); format: functional;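 note: NIH3T3 fibroblasts with HSF1-driven luciferase reporter stressed by proteasome inhibitor MG132; luminescence from HSF1-driven luciferase expression after 8 hours of MG132 stress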
# T3 sequence (P38532 whole entry): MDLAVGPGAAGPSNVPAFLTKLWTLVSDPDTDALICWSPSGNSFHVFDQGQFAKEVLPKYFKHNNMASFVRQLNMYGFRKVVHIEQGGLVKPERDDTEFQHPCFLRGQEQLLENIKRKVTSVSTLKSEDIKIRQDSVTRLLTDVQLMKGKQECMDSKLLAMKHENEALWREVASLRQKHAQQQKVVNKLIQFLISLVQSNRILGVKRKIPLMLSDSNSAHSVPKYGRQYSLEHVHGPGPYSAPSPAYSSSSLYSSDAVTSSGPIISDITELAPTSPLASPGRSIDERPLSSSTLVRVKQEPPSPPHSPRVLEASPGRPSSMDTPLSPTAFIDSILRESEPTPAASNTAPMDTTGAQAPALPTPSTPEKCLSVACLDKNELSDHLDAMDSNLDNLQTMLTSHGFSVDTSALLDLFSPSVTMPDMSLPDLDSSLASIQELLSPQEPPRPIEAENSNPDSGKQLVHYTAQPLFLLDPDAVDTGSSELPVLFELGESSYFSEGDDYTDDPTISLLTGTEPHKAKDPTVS
smiles,measurement,setting,value
c1ccc(N(c2ccccc2)c2nc(N3CCCC3)nc(-n3ccnc3)n2)cc1,EC50,[1],5.55 µM (active)
same,EC50,[2],> 150 µM (not active)
same,EC50,[3],1.84 µM (active)
same,EC50,[4],> 60 µM (not active)
same,EC50,[5],5.49 µM (active)
same,AC50,[6],5.16 µM (active)
CC(=O)NCCNc1ccnc(-c2ccccc2C(F)(F)F)n1,AC50,[7],15.8 µM (inconclusive)
same,AC50,[8],15.8 µM (inconclusive)
COc1ccccc1-c1nc(NCCNC(C)=O)c2ccccc2n1,AC50,[7],15.8 µM (inconclusive)
C=CCn1c(CNc2ccccc2)nnc1SCC(=O)N/N=C/c1ccccc1O,EC50,[9],18.3 µM (active)
same,EC50,[10],> 120 µM (not active)
same,EC50,[11],> 120 µM (not active)
O=C(O)CN1CCN(Cc2ccccc2)C1=O,AC50,[12],15.8 µM (inconclusive)
same,AC50,[13],11.2 µM (inconclusive)
NS(=O)(=O)c1ccc(N/N=C2/CCCCC2C2CCCCC2)c([N+](=O)[O-])c1 (stereo unspecified),EC50,[1],3.34 µM (active)
same,EC50,[2],7.92 µM (inconclusive)
same,EC50,[5],7.18 µM (active)
same,AC50,[14],7.29 µM (active)
CN1CCN(C(=O)O[C@@H]2c3nccnc3C(=O)N2c2ccc(Cl)cn2)CC1,AC50,[7],39.8 µM (inconclusive)
Cc1cc(=O)oc2c(OS(C)(=O)=O)c(OS(C)(=O)=O)ccc12,AC50,[7],0.794 µM (inconclusive)
OCCCn1c(CCNc2nc(-c3ccc(Cl)cc3)cs2)nc2cc(C(F)(F)F)ccc21,AC50,[6],23.9 µM (active)
COC(=O)[C@H](CC(C)C)N(Cc1ccccc1)S(=O)(=O)N(Cc1ccc(OC)cc1)[C@@H](CC(C)C)C(=O)OC,AC50,[14],5.77 µM (active)
Cc1cccc(N2CC(=O)C(c3nc4ccccc4n3C)=C2N)c1,AC50,[7],14.1 µM (inconclusive)
CN(C)C(=O)c1ccc(NC(=O)c2cccnc2)cc1,AC50,[14],6.14 µM (active)
c1nc(NCCc2c[nH]cn2)c2nc[nH]c2n1,AC50,[7],5.01 µM (inconclusive)
same,AC50,[8],3.98 µM (inconclusive)
CC(=O)c1cccc(NC(=O)CSc2ccc(-c3ccccn3)nn2)c1,EC50,[9],> 120 µM (not active)
same,EC50,[10],14.6 µM (active)
same,EC50,[11],> 120 µM (not active)
CCOC(=O)c1ncn2c1CN(C)C(=O)c1cc(F)ccc1-2 [FLUMAZENIL],AC50,[7],39.8 µM (inconclusive)
COc1ccccc1-c1nnc(SCC(=O)N2CC(C)CC(C)C2)o1 (stereo unspecified),EC50,[9],> 120 µM (not active)
same,EC50,[10],> 120 µM (not active)
same,EC50,[11],> 120 µM (not active)
CC/C(NCc1cc(OC)cc(OC)c1)=C1/C(=O)NC(=O)N(C2CCCCC2)C1=O,EC50,[9],16 µM (active)
same,EC50,[10],> 120 µM (not active)
same,EC50,[11],27.2 µM (active)
CC(C)CNc1nc(N)c([N+](=O)[O-])c(NCC2CCCO2)n1 (stereo unspecified),EC50,[9],13.5 µM (active)
same,EC50,[10],4.6 µM (active)
same,EC50,[11],> 120 µM (not active)
Cc1ccc(C(=O)NC(=C(Cl)Cl)S(=O)(=O)c2ccccc2)cc1,AC50,[6],3.29 µM (active)
COC(=O)c1ccc(CSc2nc3cc(Cl)ccc3s2)o1,AC50,[12],20 µM (inconclusive)
same,AC50,[8],25.1 µM (inconclusive)
COC(=O)N1CCC2(CCCN(Cc3nccs3)C2)CC1,AC50,[12],12.6 µM (inconclusive)
same,AC50,[8],15.8 µM (inconclusive)
CCOC(=O)c1ccc2ncc(C(C)=O)c(O)c2c1,EC50,[15],> 195 µM (not active)
NC(CC(=O)Nc1ccc(F)cc1)=NO,EC50,[15],> 195 µM (not active)
O=C(OC(C(=O)NCC1CCCO1)c1ccc(F)cc1)c1cccs1 (stereo unspecified),EC50,[15],> 195 µM (not active)
CCC(=O)Nc1cc(-c2nn(CC(=O)N3CCCCC3)c(=O)c3ccccc23)ccc1N1CCOCC1,EC50,[15],> 195 µM (not active)
O=C1N=C(N2CCCC2)S/C1=C\C=C\c1ccccc1,EC50,[15],< 0.16 µM (active)
O=C(NC1CCCCC1)C1CCN(C(=O)c2ccc(-c3ccccc3)cc2)CC1,EC50,[9],> 120 µM (not active)
same,EC50,[10],> 120 µM (not active)
same,EC50,[11],77.5 µM (active)
CCC(c1nnnn1CCc1ccccc1)N(Cc1ccco1)Cc1cc2c(C)ccc(C)c2nc1O (stereo unspecified),EC50,[9],> 120 µM (not active)
same,EC50,[10],> 120 µM (not active)
same,EC50,[11],> 120 µM (not active)
same,EC50,[3],1.41 µM (active)
same,EC50,[4],> 60 µM (not active)
CCOC(=O)c1cc(CC)sc1NC(=O)CSc1nc2ccccc2c(=O)n1Cc1ccco1,EC50,[9],> 120 µM (not active)
same,EC50,[10],> 120 µM (not active)
same,EC50,[11],17.8 µM (active)
COc1cccc(C(=O)/C=C/c2ccc(N3CCCCC3)c([N+](=O)[O-])c2)c1,AC50,[6],7.86 µM (active)
Cc1ccc(S(=O)(=O)N2CCCCC2c2cccnc2)c(C)c1C (stereo unspecified),AC50,[14],57.2 µM (active)
COc1ccccc1-c1nccc(NCc2cccnc2)n1,AC50,[12],20 µM (inconclusive)
Cc1cc(C)n2nc(-c3sccc3-n3cccc3)cc2n1,AC50,[12],35.5 µM (inconclusive)
same,AC50,[8],3.55 µM (inconclusive)
COc1ccc(C(O)c2nccn2Cc2ccccc2)cc1 (stereo unspecified),AC50,[7],6.31 µM (inconclusive)
COc1cccc(OC)c1C(=O)NC(=S)N1CCN(c2ccc(C(F)(F)F)cc2[N+](=O)[O-])CC1,AC50,[12],20 µM (inconclusive)
C/C(=N\NC(=O)c1ccc(C)cc1)c1c(C)nn(-c2ccccc2)c1O,EC50,[1],3.96 µM (active)
same,EC50,[2],> 150 µM (not active)
same,EC50,[5],14.7 µM (active)
same,AC50,[14],3.15 µM (active)
COc1ccccc1N1CCN(Cc2cc(=O)n3ccsc3n2)CC1,AC50,[12],22.4 µM (inconclusive)
Clc1ccc(Sc2ccc(/C=N/n3cnnc3)o2)cc1,AC50,[12],15.8 µM (inconclusive)
COc1ccc(C(=O)NCC2(c3ccccc3)CCCC2)c(OC)c1,AC50,[6],1.22 µM (active)
CCNc1ncc2nc(CCc3ccccc3)c(=O)n(Cc3cccc(OC)c3)c2n1,AC50,[7],12.6 µM (inconclusive)
CC(=O)N1CCN(C)CC1,AC50,[7],31.6 µM (inconclusive)
O=C(CN1CCN(c2ccc(O)cc2)CC1)Nc1cc(S(=O)(=O)N2CCCC2)ccc1Cl,EC50,[15],> 195 µM (not active)
CCCCC(=O)Nc1ccc(C(=O)NCCc2ccc(S(N)(=O)=O)cc2)cc1,EC50,[15],> 195 µM (not active)
COc1ccc(S(=O)(=O)N2CCCN(CCC(=O)Nc3cccc(C(F)(F)F)c3)CC2)cc1,AC50,[7],15.8 µM (inconclusive)
same,AC50,[8],39.8 µM (inconclusive)
same,AC50,[13],39.8 µM (inconclusive)
CC1(C)CC(=O)C(C(c2cccnc2)C2C(=O)CC(C)(C)CC2=O)C(=O)C1,EC50,[15],> 195 µM (not active)
COc1ccc(-n2c(=O)c(-c3cccs3)nc3cnc(N4CCOCC4)nc32)cc1,AC50,[7],12.6 µM (inconclusive)
same,AC50,[8],20 µM (inconclusive)
same,AC50,[13],20 µM (inconclusive)
COc1ccc(/C=N/NC(=S)Nc2ccccc2[N+](=O)[O-])cc1O,AC50,[6],4.87 µM (active)
